According to US20040077677A1, “Oral formulations” (Wyeth, priority 2002, published 2004):

Tests used:
[1] = Aqueous solubility of CCI-779; assay type: physicochemical; details: water (aqueous)
Procedure: (§1) One obstacle towards the formulation of CCI-779 is its poor aqueous solubility (less than 1 μg/ml), which makes its bioavailability low.

[2] = Aqueous stability of CCI-779; assay type: physicochemical; details: cleavage of a lactone bond, forming ring opened seco-CCI-779
Procedure: as §1

human tumor xenografts = details: nude mice, diverse histological types; cited from earlier work
tumor cells = details: histologically diverse tumor cells; cited from earlier work

For CO[C@H]1C[C@@H]2CC[C@@H](C)[C@@](O)(O2)C(=O)C(=O)N2CCCC[C@H]2C(=O)O[C@H]([C@H](C)C[C@@H]2CC[C@@H](OC(=O)C(C)(CO)CO)[C@H](OC)C2)CC(=O)[C@H](C)/C=C(\C)[C@@H](O)[C@@H](OC)C(=O)[C@H](C)C[C@H](C)/C=C/C=C/C=C/1C [CCI-779, rapamycin 42-ester with 3-hydroxy-2-(hydroxymethyl)-2-methylpropionic acid], the solubility [1] is given as < 1 µg/mL, the aqueous stability [2] is given as “exhibits aqueous instability” and the “activity against human tumor xenografts” value (human tumor xenografts) is given as “has activity against human tumor xenografts of diverse histological types”. For the same compound, the “inhibition of tumor cell growth in vitro” value (tumor cells) was “inhibit the growth of a number of histologically diverse tumor cells”.
